Earlier results on seven compounds are cited in patent US20210060038A1, “COMPOSITIONS FOR ELIMINATING BACTERIAL PROMOTORS OF COLORECTAL CANCER BY INTRALUMINAL APPLICATION” (priority 2018, published 2021).

For data set [1], the system named is resistant bacterial strains. The settings on record: overall, controlled clinical trials, oral or intravenous.
For data set [2], the system named is polymorphonuclear leukocytes.
The test system of data set [3] is strains of organisms from the susceptible genera.
The test system of data set [4] is anaerobic genus Fusobacterium.
Data set [5] has as its system anaerobic Bacteroides fragilis group of bacteria.
Data set [6] relates to anaerobic genera Peptostreptococcus (including Peptoniphilus, Finegoldia and Anaerococcus).
Data set [7] concerns Staphylococcus, Streptococcus, Enterococcus, Neisseria, Escherichia, Proteus (indole-negative), Serratia, Salmonella, Shigella, Pseudomonas, Haemophilus, and ….
Data set [8] concerns indole-positive Proteus spp., Klebsiella and Enterobacter spp.
Another data set deals with Pseudomonas aeruginosa. Particulars: maximum.
Assay in data set [9]: not given
The source holds these as a separate data set.

Assay in data set [10]: not given
The source holds these as a separate data set.

For data set [11] the following is noted: in vivo.
For data set [12] the following is noted: sealed sachets at room temperature.
In data set [13] the test system is mouse macrophage cell line.
For data set [14], the system named is human polymorphonuclear leukocytes. Particulars: rapid passive diffusion.
A further data set relates to IPEC-J2 cells. Particulars: IPEC-J2 cells exposed at 580 μg/mL, within 15 minutes.
The test system of the next data set is human macrophages. The settings on record: extracellular concentrations 0.125 to 1 μg/mL.

Like-named read-outs stand apart in the source and are kept apart here. Bounds are passed on as bounds.

Take `C[C@@H]1O[C@@H]1P(=O)(O)O` [fosfomycin, [(2R,3S)-3-methyloxiran-2-yl]phosphonic acid]: the “appearance of resistant bacterial strains” value in [1] is reported as 3.0%; in the data set with Pseudomonas aeruginosa, 15%. In data set [2], the “concentration in polymorphonuclear leukocytes relative to extracellular fluid” value was “up to twice those of the extracellular fluid”. The eosinophilia (in vivo) is recorded as 0.2%. In addition, the “transient rashes (allergy)” value (in vivo) is listed as 0.3 % of cases. Moreover, the “transiently raised liver enzymes” value (systemically administered) is listed as 0.3 % of cases. In addition, in data set [3] (early studies, various antibiotic combinations), the “synergistic effect, share of tested strains” value is given as 70-100%. Also, in data set [3] (subsequent more extensive studies), the synergy rates was 36-74%. In addition, the “activity against Fusobacterium” value in [4] was “active”. Further, the “activity against Bacteroides fragilis group” value in data set [5] is “inactive”. Moreover, the “activity against Peptostreptococcus” value in data set [6] is “active”. Besides, the “activity against aerobic genera” value in data set [7] is on record as “active”. Moreover, the “activity against indole-positive Proteus spp., Klebsiella and Enterobacter spp.” value in data set [8] was “less active”.
Turning to `C[C@@H]1O[C@@H]1P(=O)(O)O` [Fosfomycin disodium], in data set [9], the “pH of 5% solution” value is 9.0-10.5. In addition, in data set [10], the solubility in water entry is given as “highly soluble in water”. Moreover, the “bioavailability” value in data set [11] is “high bioavailability”.
Regarding `C[C@@H]1O[C@@H]1P(=O)(O)O.NC(CO)(CO)CO` [Fosfomycin trometamol], in data set [9], the “pH of 5% solution” value was 3.5-5.5. Further, the solubility in water entry in data set [10] is reported as “highly soluble in water”. Moreover, the stability of granulate result in [12] was “long-term stability”.
For `C[C@@H](O)[C@H]1C(=O)N2C(C(=O)O)=C(S[C@@H]3CN[C@H](C(=O)Nc4cccc(C(=O)O)c4)C3)[C@H](C)[C@H]12` [ertapenem], the “extracellular concentration giving bactericidal intracellular concentrations” value in data set [13] was no less than 15 µg/mL.
Turning to `Cc1ncc([N+](=O)[O-])n1CCO` [metronidazole], in [14], the “time for intracellular levels to approach equilibrium with extracellular levels” value was no more than 15 min. Also, in data set [4], the “activity against Fusobacterium” value was “active”. The “activity against Bacteroides fragilis group” value in [5] is “active”.
Consider `C[C@@H]1O[C@@H]1P(=O)(O)O` [Fosfomycin calcium monohydrate], for which the intracellular concentration with IPEC-J2 cells was roughly 30 µg/mL. Further, the “pH of 0.4% solution” value in [9] (0.4% solution) is listed as 8.1-9.6. For the same compound, in [10] (calcium monohydrate), the solubility in water result is reported as “sparingly soluble in water”.
With `C[C@@H](O)[C@H]1C(=O)N2C(C(=O)O)=C(S[C@@H]3CN[C@H](C(=O)N(C)C)C3)[C@H](C)[C@H]12` [meropenem], the “cellular to extracellular concentration ratio” value in the data set on human macrophages was 3-12.
